The values below come from patent US20100168105A1, “Spirocyclopropyl Piperidine Derivatives” (priority 2007, published 2010).

SMILES strings stand for the structures.
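Also: scintillation counts read after the 1.5 hr incubation at room temperature with shaking, Imetit serving as reference control.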

The target of the assay is human histamine H3 receptors (full-length H3, isoform 445) (Homo sapiens, UniProt Q9Y5N1). Particulars: hH3 binding IC50 (nM), inhibition of 1.4 nM [3H]-N-α-methylhistamine binding to CHO-K1 membranes expressing human H3, SPA, 1.5 hr.
Sequence of human histamine H3 receptors (full-length H3, isoform 445) (Q9Y5N1 whole entry, canonical isoform): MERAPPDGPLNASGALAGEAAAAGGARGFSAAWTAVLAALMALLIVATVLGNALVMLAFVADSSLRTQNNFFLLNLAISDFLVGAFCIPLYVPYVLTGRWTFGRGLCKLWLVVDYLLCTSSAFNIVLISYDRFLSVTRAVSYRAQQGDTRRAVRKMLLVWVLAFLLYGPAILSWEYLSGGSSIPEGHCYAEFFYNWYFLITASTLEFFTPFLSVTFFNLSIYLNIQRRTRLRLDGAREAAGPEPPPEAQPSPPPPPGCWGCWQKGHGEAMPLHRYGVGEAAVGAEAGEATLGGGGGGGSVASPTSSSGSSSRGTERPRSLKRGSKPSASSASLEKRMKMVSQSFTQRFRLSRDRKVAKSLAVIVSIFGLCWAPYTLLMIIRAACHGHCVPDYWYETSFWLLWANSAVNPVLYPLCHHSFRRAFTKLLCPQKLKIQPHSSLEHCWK
Procedure: Histamine H3 SPA with the Agonist Radioligand [^3H]—N-α-methylhistamine
Reproducibility of the assay is such that IC50 curves can be generated in singlicate. Single poke (SP) testing was done in triplicate.
Membranes, prepared from CHO-K1 cells stably expressing the human histamine H3 receptor, were obtained from ACS.
Tested formula I compounds were provided as solubilized samples in neat DMSO. Serial dilutions were performed in DMSO.
Plates were read on a Perkin Elmer TopCount. CPM data were used to analyze unless DPM data generated by a quench curve were required.
• 1. 1 mg/ml BSA was added to assay buffer (AB) on day of assay. • 2. […] Buffer volume was split between beads and membranes to allow for polytroning of membranes prior to addition to beads. • a. […] Waited a minimum of 15 minutes prior to adding membranes (See b. below.). • b. […] The homogenized membrane mixture was combined with the beads and a minimum of 30 minutes was waited prior to dispensing to plate. • 3. Formula I compounds: For Single Poke, 2 μl 1 mM of a compound in accordance with formula I was dispensed to Optiplates (triplicate plates) for final concentration of 10 μM. […] Imetit (see below) was used as a control. • 4. […] 5 μl samples were calculated in quadruplicate on the β counter. […] (For IC50s, use final concentration on calculation tab of ABase template.)
• 1. […] 2 μl of the formula I compound dilution was mixed and then transferred into assay plates. DMSO was removed and 2 μl of 100 μM Imetit was added to the wells. • 3. 178 μl bead/membrane mixture was dispensed into the assay plate. • 4. 20 μl [^3H]-NAMH was added with Rapid Plate. The assay plate was sealed and incubated for 1.5 hr on RT shaker at speed ˜6.5. • 5. The assay plate was subsequently centrifuged at 1000 rpm for 10 minutes. • 6. The count was performed on TopCount using one of the 3H SPA H3 Quench programs.
The DPM data was analyzed when tSIS was less than that associated with 70% of full scale on the quench curve (tSIS<25%). Otherwise, CPM data was used.
The compound `O=C(C1CC12CCN(C1CCOCC1)CC2)N1CCN(CC2CCCCC2)CC1` (stereo not drawn) [Example 2, (4-Cyclohexylmethyl-piperazin-1-yl)-[6-(tetrahydro-pyran-4-yl)-6-aza-spiro[2.5]oct-1-yl]-methanone] showed an IC50 of 390 nM.

Compound `CCC(CC)CN1CCC2(CC1)CC2C(=O)N1CCN(C)CC1` (stereo not drawn) [Example 3, [6-(2-Ethyl-butyl)-6-aza-spiro[2.5]oct-1-yl]-(4-methyl-piperazin-1-yl)-methanone] registered an IC50 of 1000 nM.

`CN1CCN(C(=O)C2CC23CCN(C/C=C/c2ccccc2)CC3)CC1` (stereo not drawn) [Example 4, (4-Methyl-piperazin-1-yl)-[6-((E)-3-phenyl-allyl)-6-aza-spiro[2.5]oct-1-yl]-methanone] gave an IC50 of 800 nM.

In turn, `CN1CCN(C(=O)C2CC23CCN(CCc2ccccc2)CC3)CC1` (stereo not drawn) [Example 5, (4-Methyl-piperazin-1-yl)-(6-phenethyl-6-aza-spiro[2.5]oct-1-yl)-methanone] yielded an IC50 of 640 nM.

With `CN1CCC(N2CCC3(CC2)CC3C(=O)N2CCN(C)CC2)CC1` (stereo not drawn) [Example 6, (4-Methyl-piperazin-1-yl)-[6-(1-methyl-piperidin-4-yl)-6-aza-spiro[2.5]oct-1-yl]-methanone], the IC50 amounted to 1300 nM.

`O=C(C1CC12CCN(C1CCOCC1)CC2)N1CCN(c2ccccn2)CC1` (stereo not drawn) [Example 13, (4-Pyridin-2-yl-piperazin-1-yl)-[6-(tetrahydro-pyran-4-yl)-6-aza-spiro[2.5]oct-1-yl]-methanone]: the IC50 turned out to be 573 nM.

`COc1ccc(N2CCN(C(=O)C3CC34CCN(C3CCOCC3)CC4)CC2)cc1` (stereo not drawn) [Example 15, [4-(4-Methoxy-phenyl)-piperazin-1-yl]-[6-(tetrahydro-pyran-4-yl)-6-aza-spiro[2.5]oct-1-yl]-methanone] showed an IC50 of 322 nM.

In turn, `O=C(C1CC12CCN(Cc1ccccc1)CC2)N1CCN(C2CCCCC2)CC1` (stereo not drawn) [Example 23, (6-Benzyl-6-aza-spiro[2.5]oct-1-yl)-(4-cyclohexyl-piperazin-1-yl)-methanone] yielded an IC50 of 306 nM.

The compound `O=C(C1CC12CCN(C1CCOCC1)CC2)N1CCN(C2CCOCC2)CC1` (stereo not drawn) [Example 24, [6-(Tetrahydro-pyran-4-yl)-6-aza-spiro[2.5]oct-1-yl]-[4-(tetrahydro-pyran-4-yl)-piperazin-1-yl]-methanone] had an IC50 of 336 nM.

As to `O=C(C1CC12CCN(CCOCc1ccccc1)CC2)N1CCN(C2CCCCC2)CC1` (stereo not drawn) [Example 25, [6-(2-Benzyloxy-ethyl)-6-aza-spiro[2.5]oct-1-yl]-(4-cyclohexyl-piperazin-1-yl)-methanone], the IC50 was 419 nM.

In turn, `CC(C)(C)OC(=O)CN1CCC2(CC1)CC2C(=O)N1CCN(C2CCC2)CC1` (stereo not drawn) [Example 36, [1-(4-Cyclobutyl-piperazine-1-carbonyl)-6-aza-spiro[2.5]oct-6-yl]-acetic acid tert-butyl ester] registered an IC50 of 182 nM.

`CNC(=O)CN1CCC2(CC1)CC2C(=O)N1CCN(C2CCC2)CC1` (stereo not drawn) [Example 37, 2-[1-(4-Cyclobutyl-piperazine-1-carbonyl)-6-aza-spiro[2.5]oct-6-yl]-N-methyl-acetamide] gave an IC50 of 207 nM.

The compound `CS(=O)(=O)c1ccc(N2CCC3(CC2)CC3C(=O)N2CCN(C3CCC3)CC2)cc1` (stereo not drawn) [Example 38, (4-Cyclobutyl-piperazin-1-yl)-[6-(4-methanesulfonyl-phenyl)-6-aza-spiro[2.5]oct-1-yl]-methanone] registered a 50% inhibitory concentration (IC50) of 336 nM.

With `COc1ccc(N2CCC3(CC2)CC3C(=O)N2CCN(C3CCC3)CC2)cc1` (stereo not drawn) [Example 39, (4-Cyclobutyl-piperazin-1-yl)-[6-(4-methoxy-phenyl)-6-aza-spiro[2.5]oct-1-yl]-methanone], the IC50 stood at 361 nM.

`COC(=O)c1ccc(N2CCC3(CC2)CC3C(=O)N2CCN(C3CCC3)CC2)cc1` (stereo not drawn) [Example 40, 4-[1-(4-Cyclobutyl-piperazine-1-carbonyl)-6-aza-spiro[2.5]oct-6-yl]-benzoic acid methyl ester] showed an IC50 of 470 nM.

As usually defined, the IC50 is the point on the concentration scale where inhibition reaches its midpoint. A lower IC50 goes with higher potency.
